Assay results reported in ChEMBL document CHEMBL1944629, “Investigation of trypanothione reductase inhibitory activity by 1,3,4-thiadiazolium-2-aminide derivatives and molecular docking studies” (Bioorg Med Chem, 2012).
Activity calls are given as the source filed them. The rule behind the calls is not given here.

What was measured:
[1] = molecular target: Trypanothione reductase (Leishmania amazonensis) (UniProt A5JV95); assay: Inhibition of trypanothione reductase in Leishmania amazonensis MHOM/BR/LTB0016 extracts assessed as NADPH consumption using trypanothione disulfide as substrate at 1 uM after 5 sec by spectrophotometer
Trypanothione reductase (Leishmania amazonensis), sequence (A5JV95 as listed by the source): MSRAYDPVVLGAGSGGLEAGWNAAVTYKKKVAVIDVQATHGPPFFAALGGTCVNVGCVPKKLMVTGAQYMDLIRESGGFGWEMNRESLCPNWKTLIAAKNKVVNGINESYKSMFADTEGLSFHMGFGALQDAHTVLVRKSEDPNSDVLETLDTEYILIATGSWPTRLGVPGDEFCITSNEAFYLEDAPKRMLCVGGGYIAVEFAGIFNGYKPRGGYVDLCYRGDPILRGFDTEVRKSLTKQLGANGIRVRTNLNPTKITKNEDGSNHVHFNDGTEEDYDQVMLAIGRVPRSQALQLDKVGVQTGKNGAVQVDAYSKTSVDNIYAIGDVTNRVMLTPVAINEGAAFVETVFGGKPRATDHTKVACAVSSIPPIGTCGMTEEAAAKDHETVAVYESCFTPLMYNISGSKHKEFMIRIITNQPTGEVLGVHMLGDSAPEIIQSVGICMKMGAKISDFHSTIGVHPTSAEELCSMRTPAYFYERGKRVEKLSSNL

[2] = molecular target: Trypanothione reductase (Leishmania infantum) (UniProt A4HSF7); assay: Inhibition of trypanothione reductase in promastigotes of Leishmania infantum MHOM/MA67ITMAP263 extracts assessed as NADPH consumption using trypanothione disulfide as substrate at 1 uM after 5 sec by spectrophotometer
Trypanothione reductase (Leishmania infantum), sequence (A4HSF7 as listed by the source): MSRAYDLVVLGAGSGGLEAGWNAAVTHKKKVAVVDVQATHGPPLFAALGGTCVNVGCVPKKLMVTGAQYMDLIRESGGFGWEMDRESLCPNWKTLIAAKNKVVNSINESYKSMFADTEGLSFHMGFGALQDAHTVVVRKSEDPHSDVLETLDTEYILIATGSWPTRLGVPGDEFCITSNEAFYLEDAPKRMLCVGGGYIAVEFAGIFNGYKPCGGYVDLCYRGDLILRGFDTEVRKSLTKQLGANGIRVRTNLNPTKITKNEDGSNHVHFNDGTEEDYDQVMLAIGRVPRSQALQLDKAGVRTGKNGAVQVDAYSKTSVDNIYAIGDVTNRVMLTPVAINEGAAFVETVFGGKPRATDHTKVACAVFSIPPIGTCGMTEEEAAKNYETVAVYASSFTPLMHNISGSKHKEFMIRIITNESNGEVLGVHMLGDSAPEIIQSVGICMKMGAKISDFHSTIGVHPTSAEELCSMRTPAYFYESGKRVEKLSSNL

[3] = test system: Leishmania braziliensis; assay: Inhibition of trypanothione reductase in promastigotes of Leishmania braziliensis MCAN/BR/98/R619 extracts assessed as NADPH consumption using trypanothione disulfide as substrate at 1 uM after 5 sec by spectrophotometer
[4] = molecular target: Trypanothione reductase (Trypanosoma cruzi) (UniProt P28593); assay: Inhibition of trypanothione reductase epimastigotes of Trypanosoma cruzi Y extracts assessed as NADPH consumption using trypanothione disulfide as substrate at 1 uM after 5 sec by spectrophotometer
Trypanothione reductase (Trypanosoma cruzi), sequence (P28593 whole entry, looked up): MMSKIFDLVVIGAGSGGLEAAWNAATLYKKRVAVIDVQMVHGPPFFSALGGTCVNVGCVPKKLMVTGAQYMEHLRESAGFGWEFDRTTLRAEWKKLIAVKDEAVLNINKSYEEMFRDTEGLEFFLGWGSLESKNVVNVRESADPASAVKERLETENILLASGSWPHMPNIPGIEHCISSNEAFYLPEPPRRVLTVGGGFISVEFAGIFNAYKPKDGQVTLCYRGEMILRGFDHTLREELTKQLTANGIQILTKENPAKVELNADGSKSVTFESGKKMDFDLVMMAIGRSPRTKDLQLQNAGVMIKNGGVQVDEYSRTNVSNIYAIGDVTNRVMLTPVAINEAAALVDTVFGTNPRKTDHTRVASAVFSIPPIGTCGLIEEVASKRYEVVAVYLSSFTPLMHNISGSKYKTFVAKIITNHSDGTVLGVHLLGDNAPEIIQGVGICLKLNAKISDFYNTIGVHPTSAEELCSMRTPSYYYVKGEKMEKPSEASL

[5] = molecular target: Trypanothione reductase (Leishmania infantum) (UniProt A4HSF7); assay: Inhibition of recombinant Leishmania infantum MHOM/MA67ITMAP263 trypanothione reductase assessed as inhibition of NADPH consumption using trypanothione disulfide as substrate at 1 uM after 60 secs by spectrophotometer
[6] = molecular target: Trypanothione reductase (Trypanosoma cruzi) (UniProt P28593); assay: Inhibition of recombinant Trypanosoma cruzi Y trypanothione reductase assessed as inhibition of NADPH consumption using trypanothione disulfide as substrate at 1 uM after 60 secs by spectrophotometer

Row | Compound | inhibition [1] | inhibition [2] | inhibition [3] | inhibition [4] | inhibition [5] | inhibition [6]
1 | O=[N+]([O-])c1ccc(/C=C/c2sc(Nc3ccccc3)n[n+]2-c2ccccc2)cc1 | 76% | 70% | 69.5% | 83% | 76% | 69%
2 | COc1ccc(/C=C/c2sc(Nc3ccccc3)n[n+]2-c2ccccc2)cc1 | inactive | – | – | – | – | –
3 | COc1cccc(/C=C/c2sc(Nc3ccccc3)n[n+]2-c2ccccc2)c1 | inactive | – | – | – | – | –
4 | C(=C\c1sc(Nc2ccccc2)n[n+]1-c1ccccc1)/c1ccccc1 | inactive | – | – | – | inactive | inactive
